Data as given in patent US7584718B2, “Growing marine fish in fresh water” (MariCal, Inc., priority 2000, dated 2009).

System: full-length cation receptor (CaR) from the dogfish shark
Assay: Dogfish shark CaR expressed in human HEK cells, response to ionic composition of extracellular fluid
Format: cell-based
Conditions: extracellular fluid bathing HEK cells; range from freshwater to seawater
Text: Polyvalent cation-sensing receptors (PVCRs) serve as salinity sensors in fish. These receptors are localized to the apical membranes of various cells within the fish's body (e.g., in the gills, intestine, kidney) that are known to be responsible for osmoregulation. A full-length cation receptor (CaR) from the dogfish shark has been expressed in human HEK cells. […] The ionic concentrations responded to encompassed the range which includes the transition from freshwater to seawater. Expression of PVCR mRNA is also modulated in fish after their transfer from freshwater to seawater, and is modulated by PVCR agonists.

| Compound | Receptor response to alterations in ionic composition |
| --- | --- |
| [Ca+2] [Ca^2+, calcium] | respond to alterations |
| [Mg+2] [Mg^2+, magnesium] | respond to alterations |
| [Cl-].[Na+] [NaCl, sodium chloride] | respond to alterations |
